Test results as given in patent publication US4027039A (priority 1975, dated 1977).
Read-outs that look alike come from different tables or passages of the source.

Columns and labels:
Herpes virus [1] = test: Herpes virus in chicken eggs, single dose 24 hours pre-infection; type: in vivo, chick embryo
[2] = system: Influenza, Ann Arbor virus; test: Influenza Ann Arbor in mice, subcutaneous; late read day 9 (Table 11), 7 (Tables 12, 14), 5 (Table 13); type: in vivo, mouse; details: total dose .05 μg
Herpes virus [3] = system: Herpes virus
Influenza PR 8 virus = test: Influenza PR 8 in mice, oral; schedule by table; late read day 6 (Table 37), 7 (33, 36), 8 (32, 35, 47), 10 (38); control fraction 18/20 (Table 32), 19/20 (Table 35), else 100%; type: in vivo, mouse
Vaccinia virus = system: Vaccinia virus; design: species or system fertile eggs; details: various concentrations
[4] = system: Influenza B Massachusetts virus; test: Influenza B Mass. in mice, oral; late read day 5 (Table 39), 7 (Table 40), 11 (Tables 61, 65); control fraction 16/20 (Table 61), else 100%; type: in vivo, mouse
Protocol: A portion of a commercially available sample of amantadine was recrystallized from isopropanol. The activity of the material against Influenza B Mass. was tested for the sample as obtained, the recrystallized portion, and the mother liquor obtained from recrystallizing the portion.

SMILES: NNC(N)=O [semicarbazide]
- No. dying 5-22 day (Herpes virus [1]; 2 μg): 0
- No. living longer than controls (Herpes virus [1]; 2 μg): 0
- Total deaths, 4th day (Herpes virus [1]; 2 μg): 10
- Deaths on day 2 (Herpes virus [1]; 20 μg): 1
- Deaths on day 3 (Herpes virus [1]; 20 μg): 5
- No. dying 5-22 day (Herpes virus [1]; 20 μg): 0
- No. living longer than controls (Herpes virus [1]; 20 μg): 1
- Total deaths, 4th day (Herpes virus [1]; 20 μg): 11
- Deaths on day 1 (Herpes virus [1]; .00005 μg): 4
- Deaths on day 3 (Herpes virus [1]; .00005 μg): 4
- No. dying 5-22 day (Herpes virus [1]; .00005 μg): 1
- No. living longer than controls (Herpes virus [1]; .00005 μg): 1
- Total deaths, 4th day (Herpes virus [1]; .00005 μg): 11
- Deaths on day 3 (Herpes virus [1]; .0005 μg): 6
- Deaths on day 4 (Herpes virus [1]; .0005 μg): 1
- No. dying 5-22 day (Herpes virus [1]; .0005 μg): 0
- No. hatched (Herpes virus [1]; .0005 μg): 1
- No. living longer than controls (Herpes virus [1]; .0005 μg): 1
- Total deaths, 4th day (Herpes virus [1]; .0005 μg): 11
- No. hatched (Herpes virus [1]; .005 μg): 1
- No. living longer than controls (Herpes virus [1]; .005 μg): 4
- Total deaths, 4th day (Herpes virus [1]; .005 μg): 7
- Deaths on day 1 (Herpes virus [1]; .05 μg): 1
- Deaths on day 2 (Herpes virus [1]; .05 μg): 4
- Deaths on day 3 (Herpes virus [1]; .05 μg): 6
- No. dying 5-22 day (Herpes virus [1]; .05 μg): 0
- No. living longer than controls (Herpes virus [1]; .05 μg): 1
- Total deaths, 4th day (Herpes virus [1]; .05 μg): 11
- Deaths on day 3 (Herpes virus [1]; .5 μg): 5
- Total deaths, 4th day (Herpes virus [1]; .5 μg): 9
- Total no. living longer than controls (Herpes virus [1]; all doses): 10
- No. animals surviving after 5-9 days [2]: 0
- animals survived (Herpes virus [3]; mouse, in vivo): 20 to 30%
- animals protected (Herpes virus [3]; no pre-treatment, one dose level): 50%
- No. animals surviving after 6-9 days (Herpes virus [3]; total dose 5 μg): 7
- No. animals surviving after 6-9 days (Herpes virus [3]; total dose .00005 μg): 5
- No. animals surviving when 100% (or given fraction) of controls are dead (Herpes virus [3]; total dose .00005 μg): 5
- No. animals surviving when 100% (or given fraction) of controls are dead (Herpes virus [3]; total dose .0005 μg): 0
- No. animals surviving after 6-9 days (Herpes virus [3]; total dose .05 μg): 5
- Survivors (Influenza PR 8 virus; total dose .000005 μg): 0
- No. animals surviving when 100% (or given fraction) of controls are dead (Influenza PR 8 virus; total dose .00005 μg): 0
- Survivors (Influenza PR 8 virus; total dose .00005 μg): 0
- No. animals surviving when 100% (or given fraction) of controls are dead (Influenza PR 8 virus; total dose .0005 μg): 0
- Survivors (Influenza PR 8 virus; total dose .0005 μg): 0
- No. animals surviving when 100% (or given fraction) of controls are dead (Influenza PR 8 virus; total dose .005 μg): 0
- Survivors (Influenza PR 8 virus; total dose .005 μg): 0
- effect on pox formation on the membrane (Vaccinia virus): No effect
- No. animals surviving when 100% (Table 61: 16/20) of controls are dead ([4]; total dose .000005 μg (5 pg)): 0
- Survivors ([4]; total dose .000005 μg (5 pg)): 0
- No. animals surviving when 100% (Table 61: 16/20) of controls are dead ([4]; total dose .00005 μg (50 pg)): 0
- Survivors ([4]; total dose .00005 μg (50 pg)): 0
- No. animals surviving when 100% (Table 61: 16/20) of controls are dead ([4]; total dose .0005 μg (500 pg)): 1
- Survivors ([4]; total dose .0005 μg (500 pg)): 0
- No. animals surviving after 5 days (Table 61: 11 days) ([4]; total dose .005 μg (5 ng)): 6
- No. animals surviving when 100% (Table 61: 16/20) of controls are dead ([4]; total dose .005 μg (5 ng)): 3
- Survivors ([4]; total dose .005 μg (5 ng)): 0
- No. animals surviving after 5 days (Table 61: 11 days) ([4]; total dose .05 μg (50 ng)): 6
- No. animals surviving when 100% (Table 61: 16/20) of controls are dead ([4]; total dose .05 μg (50 ng)): 1
- Survivors ([4]; total dose .05 μg (50 ng)): 0
- No. animals surviving when 100% (Table 61: 16/20) of controls are dead ([4]; total dose .5 μg (500 ng)): 1
- Survivors ([4]; total dose .5 μg (500 ng)): 0
